Consider 1 compound from USRE40839E1 (The United States of America as represented by the …, priority 1992, dated 2009).

The structures appear in SMILES notation.

Series [1] concerns diffuse large cell lymphoma. The series is described as follows: 96 hour continuous infusion every 21 days in lymphoma patients. Format: in vivo, human. Conditions: 70-140 mg/M^2/96 hrs every 21 days. The source says:
This 96 hr continuous infusion was repeated every 21 days, while patients were monitored for a response after every two cycles.

The test system of another series is mammalian cells. Conditions: actively dividing cells; cited from earlier work.
For a further series, the system named is patients. As to conditions: infusion times up to 24 hours; cited from earlier work.
The test system of another series is ovarian cancer. Conditions: 34 patients with ovarian cancer; 250 mg/M^2 as 24 hour continuous infusion; cited from earlier work.
For a further series, the system named is melanoma. Conditions: 30 patients with melanoma; 250 mg/M^2 as 24 hour continuous infusion; cited from earlier work.
In series [2] the test system is refractory acute leukemia. As to conditions: cited from earlier work.
In series [3] the test system is breast cancer. Conditions: 24 hour infusion at 250 mg/M^2; similar breast cancer patient group; cited from earlier work.
Series [4] relates to breast cancer. In words: 96 hour continuous infusion every 21 days in breast cancer patients. Conditions: 70-140 mg/M^2/96 hrs every 21 days.
Setting [5] is: 6 patients with diffuse large cell lymphoma.

For `CC(=O)O[C@H]1C(=O)[C@@]2(C)[C@H]([C@H](OC(=O)c3ccccc3)[C@]3(O)C[C@H](OC(=O)[C@H](O)[C@@H](NC(=O)c4ccccc4)c4ccccc4)C(C)=C1C3(C)C)[C@]1(OC(C)=O)CO[C@@H]1C[C@@H]2O` [Taxol], in series [1] (setting [5]), the “number of minor remissions (MR)” value is on record as 1 patients, the “number of partial remissions (PR)” value came out at 3 patients and the partial remission rate is listed as 50%. Further, the “patients in whom Taxol was active (PR + MR)” value in series [1] (diffuse large cell lymphoma) is given as 4 out of 6. In addition, the “Taxol concentration that usually causes a significant increase in microtubule number, changes in cell shape and mitotic arrest” value in the series on mammalian cells is on record as 50 Nm. Further, in the series on patients, the dose limiting toxicity entry was “reversible myclosuppression”. Besides, in the series on ovarian cancer, the major toxicities result is “neutropenia and peripheral neuropathy”; the objective response rate is listed as 21%. In the series on melanoma, the objective response rate was 13%. Also, in series [2] (17 patients, 24 hour continuous infusion, 200 to 390 mg/M^2), the “toxicity limiting further dose escalation” value is given as “Severe mucositis”. The maximum tolerated dose in series [2] (17 patients, 24 hour continuous infusion, escalated from 200 to 390 mg/M^2) was 390 mg/M^2. Also, the “patients with transient reductions in peripheral blood and bone marrow blasts” value in series [2] (of 17 patients) was “Nine”. For the same compound, the response rate with breast cancer [3] was 33%. In addition, in the series on breast cancer [4] (11 breast cancer patients), the “number of minor remissions (MR)” value stood at 2 patients, the “number of partial remissions (PR)” value was 7 patients, the partial remission rate is reported as 64% and the total response rate was 82%. The “patients with positive response (PR + MR)” value in the series with breast cancer [4] (breast cancer, prior doxorubicin or mitoxantrone regimen) is 9 out of the 11.
